From BigSolDB 2.1

COC(=O)C1=C(C)NC(C)=C(C(=O)OCC(C)C)C1c1ccccc1[N+](=O)[O-] (stereo not given)
solubility (mole fraction)
Settings	278.15 K	283.15 K	288.15 K	293.15 K	298.15 K	303.15 K	308.15 K	313.15 K	318.15 K
in acetonitrile	0.00826	0.00998	0.0121	0.0145	0.0173	0.0204	0.0241	0.0281	0.0329
in ethyl acetate	0.016	0.0185	0.0214	0.0248	0.0286	0.0324	0.037	0.0419	0.0477
in isopropanol	0.00483	0.00578	0.00688	0.0081	0.00956	0.0111	0.0129	0.015	0.0172
in n-propanol	0.00367	0.00448	0.00553	0.00673	0.00811	0.0097	0.0115	0.0136	0.0162
in water	3.79e-06	5.04e-06	6.75e-06	8.67e-06	1.17e-05	1.51e-05	1.94e-05	2.47e-05	3.09e-05
